Structures can show the parent of a compound that is named as a salt.
Legend:
[1] = target: T1, histamine-stimulated adenylate cyclase (Cavia porcellus, UniProt P47747); test: in vitro inhibition of histamine-stimulated adenylate cyclase (ad. cyc H); assay type: biochemical; details: smaller numbers indicate greater potency, read-out: ad cyc H rating (molar concentration required to inhibit by 50% the stimulation of adenylate cyclase observed after treatment with histamine)
T1 construct: by the method developed by Kanof and Greengard; from tissue; host or cells: brain homogenate (guinea pig hippocampus/neocortex, inferred from the cited method)

[2] = target: T2, specific binding of tritiated mepyramine ([^3 H]-mepyramine) in brain (Rattus norvegicus, UniProt P31390); test: in vitro inhibition of the specific binding of [3H]-mepyramine in brain; details: brain homogenates, read-out: (^3 H)mepyramine rating (molar concentration required to inhibit by 50% the binding of [^3 H]mepyramine)
T2 construct: rate brain homogenates; from tissue; host or cells: rat brain homogenate

[3] = target: binding of tritiated quinuclidinyl benzylate ([^3 H]-QNB) in brain; set-up: species or system rat; details: in vitro; brain homogenates; read-out: (^3 H)QNB rating (molar concentration required to inhibit by 50% the binding of [^3 H]QNB)

T2 sequence (P31390 whole entry): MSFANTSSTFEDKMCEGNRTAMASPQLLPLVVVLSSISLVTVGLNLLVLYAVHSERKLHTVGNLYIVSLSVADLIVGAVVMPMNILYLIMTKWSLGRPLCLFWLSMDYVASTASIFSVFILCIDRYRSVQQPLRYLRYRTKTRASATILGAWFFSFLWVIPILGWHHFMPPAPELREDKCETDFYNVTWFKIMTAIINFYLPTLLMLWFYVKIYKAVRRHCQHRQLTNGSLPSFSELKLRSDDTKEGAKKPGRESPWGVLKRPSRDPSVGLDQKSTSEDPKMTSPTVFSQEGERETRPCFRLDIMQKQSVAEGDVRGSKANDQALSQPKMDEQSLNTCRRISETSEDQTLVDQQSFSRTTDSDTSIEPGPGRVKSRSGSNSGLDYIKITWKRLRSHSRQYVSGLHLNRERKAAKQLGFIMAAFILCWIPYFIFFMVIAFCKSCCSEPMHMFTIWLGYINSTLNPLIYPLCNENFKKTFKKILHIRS
T1 sequence (P47747 whole entry): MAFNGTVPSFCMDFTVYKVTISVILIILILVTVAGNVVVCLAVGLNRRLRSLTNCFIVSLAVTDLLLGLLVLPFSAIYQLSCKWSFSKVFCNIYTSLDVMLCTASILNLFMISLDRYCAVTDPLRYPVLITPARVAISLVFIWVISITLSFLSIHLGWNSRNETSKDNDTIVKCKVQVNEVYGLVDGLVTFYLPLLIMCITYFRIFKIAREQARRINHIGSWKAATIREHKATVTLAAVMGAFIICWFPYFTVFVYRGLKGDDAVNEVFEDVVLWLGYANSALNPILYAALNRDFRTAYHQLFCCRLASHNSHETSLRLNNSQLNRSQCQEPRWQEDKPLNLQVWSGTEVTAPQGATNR

Structure (SMILES): CCN1CCN2C[C@@H](c3ccccc3)c3ccccc3[C@@H]2C1 (relative stereo) [Example 3, cis-1,3,4,6,7,11b-Hexahydro-2-ethyl-7-phenyl-2H-pyrazino[2,1-a]isoquinoline dihydrochloride]
- IC50 [1]: > 10 µM
- IC50 [2]: 340 nM
- IC50 [3]: 1100 nM

Structure (SMILES): CN1CCN2C[C@@H](c3ccccc3)c3ccccc3[C@H]2C1 (relative stereo) [Example 2, trans-1,3,4,6,7,11b-Hexahydro-2-methyl-7-phenyl-2H-pyrazino[2,1-a]isoquinoline dihydrochloride]
- IC50 [1]: > 10 µM
- IC50 [2]: > 1000 nM
- IC50 [3]: 3300 nM

Structure (SMILES): c1ccc([C@@H]2CN3CCNC[C@H]3c3ccccc32)cc1 (relative stereo) [Example 4, cis-1,3,4,6,7,11b-Hexahydro-7-phenyl-2H-pyrazino[2,1-a]isoquinoline dihydrochloride]
- IC50 [1]: > 10 µM
- IC50 [2]: > 1000 nM
- IC50 [3]: 920 nM

Structure (SMILES): CN1CCN2C[C@@H](c3ccccc3)c3ccccc3[C@@H]2C1 (relative stereo) [Example 1, cis-1,3,4,6,7,11b-Hexahydro-2-methyl-7-phenyl-2H-pyrazino[2,1-a]isoquinoline dihydrochloride]
- IC50 [1]: 6.8 µM
- IC50 [2]: 20 nM
- IC50 [3]: 250 nM
